Assay results: patent publication US9994536B2, “Compounds and methods of treating neurological disorders” (TORREY PINES INSTITUTE FOR MOLECULAR STUDIES, priority 2014, dated 2018)

Columns and labels:
PI3Kα = test: Signal transduction analysis, PI3Kα; format: cell-based, human; conditions: NT2 cells
Text: (§1) (2). THPI-244 increases sAPPα by a novel mechanism of upregulating TrkA, a neurotrophic receptor. Therefore, in addition to increasing neuroprotective sAPPα and decreasing toxic Aβ, THPI-244 mediated increased TrkA protein levels are expected to provide neurotrophic support. Following the validation of the effect of THPI-244 in increasing sAPPα levels in CHO cells, NT2 cells, AD fibroblasts and human primary neurons, we were interested in identifying the molecular target of THPI-244 for unraveling the molecular mechanism by which it increases sAPPα which in turn can predict toxicity profile and whether to pursue long-term studies. Increased protein levels of both native and phosphorylated form of TrkA in NT2 cells and mouse brains by THPI-244 validated TrkA as the target.

[1] = test system: Wild-type (WT) C57BL/6 mice; test: Lethal dose (LD50) study in mice; format: in vivo, mouse
Text: Wild-type (WT) C57BL/6 mice aged about 6 months were used in the study. The compound THPI-244 was initially dissolved in 100% DMSO and then diluted to final 10% DMSO with phosphate buffered saline (PBS). […] Among these 6 mice, 3 mice received repeated injections (i.p) of compound THPI-244 for 5 days.

[2] = test system: sAPPα in supernatants of 7WD10 cells; test: Western blot sAPPα release assay, 7WD10 cells; format: cell-based; conditions: 10 nM, 7WD10 supernatant
Description: (2). To ascertain that hits identified as a result of AlphaLISA assay are not due to artifacts of the detection system, the sAPPα levels were measured by Western blots as a secondary assay downstream of primary HTS to confirm hits or discard artifacts of the AlphaLISA assay. The assay was performed using a range of concentrations of hit compounds (10-5,000 nM). A hit compound named thiazole piperazine #244 (THPI-244) and THPI-326 induced dose-dependent increase of sAPPα in supernatants of 7WD10 cells (FIG. 1.3). […] Since compound THPI-244 increased sAPPα levels more than THPI-326, we focused on THPI-244 for further validation.
Western blot sAPPα release assay. 7WD10 cells were grown in 6-well plates and treated with test compounds and SAHA (vorinostat) at several concentrations in duplicate wells. After 24 h of drug exposure, the conditioned media (CM) was collected, centrifuged to remove cell debris and subjected to SDS-PAGE electrophoresis. sAPPα (6E10, mouse IgG from IBL America ltd) was detected using indicated antibody. […] Samples were subjected to SDS-PAGE, transferred and immunoblotted with indicated antibodies and detected by enhanced chemiluminescence method. Quantification of Western blot signals was done using ImageJ software.

TrkA [3] = target: TrkA (Homo sapiens, UniProt P04629); test: Table of THPI-244 analogs: TrkA increase
Chain of TrkA (Homo sapiens, UniProt P04629) (P04629 33-796, species assumed): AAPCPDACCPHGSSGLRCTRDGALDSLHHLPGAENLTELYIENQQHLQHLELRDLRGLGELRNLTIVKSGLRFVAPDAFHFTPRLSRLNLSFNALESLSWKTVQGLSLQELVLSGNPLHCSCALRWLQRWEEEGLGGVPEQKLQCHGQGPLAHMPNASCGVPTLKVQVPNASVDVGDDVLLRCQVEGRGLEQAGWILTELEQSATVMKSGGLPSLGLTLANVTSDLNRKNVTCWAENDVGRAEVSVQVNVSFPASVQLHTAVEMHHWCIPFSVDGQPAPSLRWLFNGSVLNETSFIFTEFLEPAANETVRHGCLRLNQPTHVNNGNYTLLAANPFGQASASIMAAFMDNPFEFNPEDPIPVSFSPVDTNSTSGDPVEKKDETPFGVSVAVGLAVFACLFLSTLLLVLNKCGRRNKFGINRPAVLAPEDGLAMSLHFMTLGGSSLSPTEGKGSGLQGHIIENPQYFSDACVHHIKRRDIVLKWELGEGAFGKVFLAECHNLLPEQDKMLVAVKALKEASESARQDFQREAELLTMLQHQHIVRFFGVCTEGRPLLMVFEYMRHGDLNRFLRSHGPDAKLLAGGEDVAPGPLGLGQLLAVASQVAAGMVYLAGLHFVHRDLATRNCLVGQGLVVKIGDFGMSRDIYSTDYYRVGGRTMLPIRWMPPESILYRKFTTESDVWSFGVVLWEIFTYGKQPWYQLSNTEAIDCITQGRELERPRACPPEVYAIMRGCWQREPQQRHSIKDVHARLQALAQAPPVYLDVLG

human primary neurons = test: MTT cytotoxicity assay, human primary neurons; format: cell-based; conditions: 24 h exposure
Text: (4). Toxicity is another crucial limitation for successful drug development as evidenced by recent failure of γ-secretase inhibitors at the clinical trials due to cytotoxicity (Cole, S L and Vassar, R, 2007, Mol. Neurodeg. 2, 22-47; Doody R S, et al. 2013. N. Eng. J. Med. 369, 341-350). Therefore we measured cytotoxicity by very sensitive MTT assay as described previously (Hayes, C D., et al. 2013, BMC Medicine. 26, 11.81; 23; Hayes, C D., et al., 2012, PLoS One 7, e45841) in human primary neurons obtained from a commercial source (cat #1520, ScienCell, Carlsbad, Calif., USA) and fibroblasts derived directly from AD patients (cat #AG06263C, Coriell Institute Cell repository supported by NINDS, NIH). […] We directly used human neurons for toxicity studies so as to reduce the chances of future failure at a later stage due to toxicity.

sAPPα [4] = test: sAPPα ELISA, NT2 cells stably expressing APP751; format: cell-based, human; conditions: 24 h
Description: (5). To confirm the effect of THPI-244 on sAPPα levels in a neuronal cell line and by a tertiary assay, we exposed human Neuron-committed Teratocarcinoma cell line (NT2) stably expressing human APP751 to different concentrations of THPI-244 for 24 h and compared with that of Bryostatin, a classical activator of PKC known to stimulate sAPPα release. […] Levels of sAPPα were measured by ELISA using commercially available kit (cat #27734, IBL-America, Minneapolis, Minn., USA). […] Similar biphasic effect of Bryostatin was confirmed for Aβ42 also, measured again in NT2 stable cells by ELISA (cat #KHB3441, Life Technologies, Grand Island, N.Y., USA). Consistent with sAPPα, THPI-244 decreased Aβ42 levels dose-dependently starting from 50 nM (28%, p<0.05) to 2000 nM (64%, p<0.001) (n=4 independent experiments) (FIG. 1.7). Thus THPI-244 increased non-amyloidogenic processing of APP in NT2 cells.

P75NTR = test: Signal transduction analysis, P75NTR; format: cell-based, human; conditions: NT2 cells
Text: as §1

TrkA [5] = target: T1, TrkA (Mus musculus, UniProt Q3UFB7); test: Mouse brain lysate immunoblot, TrkA; format: in vivo; conditions: 100 mg/kg i.p. for 5 days
T1 construct: from tissue; host or cells: mouse brain lysate
T1 sequence (Q3UFB7 34-799): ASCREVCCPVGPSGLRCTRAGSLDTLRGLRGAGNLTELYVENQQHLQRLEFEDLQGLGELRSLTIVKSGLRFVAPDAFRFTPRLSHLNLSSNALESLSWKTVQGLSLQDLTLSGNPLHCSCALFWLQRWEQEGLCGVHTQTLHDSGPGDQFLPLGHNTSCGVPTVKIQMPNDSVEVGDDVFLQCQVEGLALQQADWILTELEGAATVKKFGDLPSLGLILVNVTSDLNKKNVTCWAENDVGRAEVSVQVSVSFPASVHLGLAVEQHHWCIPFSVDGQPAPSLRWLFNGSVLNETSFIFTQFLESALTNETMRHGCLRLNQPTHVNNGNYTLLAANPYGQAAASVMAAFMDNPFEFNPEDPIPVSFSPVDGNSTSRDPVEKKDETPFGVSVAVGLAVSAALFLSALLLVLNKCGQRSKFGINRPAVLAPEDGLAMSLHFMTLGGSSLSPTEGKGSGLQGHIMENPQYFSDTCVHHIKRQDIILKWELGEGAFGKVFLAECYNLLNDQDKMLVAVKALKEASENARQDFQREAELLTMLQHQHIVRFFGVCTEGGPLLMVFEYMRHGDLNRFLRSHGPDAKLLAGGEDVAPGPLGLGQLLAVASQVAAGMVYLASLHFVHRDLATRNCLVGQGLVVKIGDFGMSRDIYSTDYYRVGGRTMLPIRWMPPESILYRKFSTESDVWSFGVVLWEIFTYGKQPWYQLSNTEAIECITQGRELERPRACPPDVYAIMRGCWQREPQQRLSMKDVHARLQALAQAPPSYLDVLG
Description: FIGS. 9.2A and B illustrate that THPI-244 increases TrkA and sAPPα in the mouse brain. FIG. 9.2A illustrates that THPI-244 was administered to mice by i.p. injections at 100 mg/kg body weight for 5 days and the brain lysates were subjected to immunoblots. Specific antibodies were used to detect TrkA and sAPPα. […] Data are mean±SEM, n=3*, p<0.05, ***, p<0.001.

sAPPα [6] = test: sAPPα ELISA, fibroblasts derived from AD patients; format: cell-based, human; conditions: 24 h
Description: (1). […] Therefore, we first used fibroblasts derived from AD patients (AG06263C, Coriell Cell repository, supported by NINDS/NIH) and exposed to THPI-244 for 24 h and measured sAPPα release by ELISA as done above for NT2 cells. […] We also confirmed dose-dependent effect of THPI-244 on sAPPα levels in human primary neurons transiently transfected with APP751 with Swedish mutation which is trafficked differently from WT APP and releases more sAPPα. Human neurons were grown on specially coated glass coverslips (cat #GG-18-PDL, NeuVitro, Germany). We could reproducibly achieve nearly 30% transfection efficiency using a nanoparticle based transfection reagent called Neuromag (cat #NM150299, OZ Biosciences, France).

What does the source list for `O=C(Cc1ccccc1)N[C@H](CNc1nc(CN2CCN(C(=O)Cc3ccccc3)CC2)cs1)c1ccccc1` [THPI-244]?
effect on PI3Kα pathway (PI3Kα): activation of PI3Kα; lethality ([1]; 100 mg/kg i.p., 6 mice, monitored for 5 days): did not result in the death of any of the 6 mice; lethality ([1]; 200 mg/kg, single mouse): survived without visible ill effects; lethality ([1]; repeated i.p. injections for 5 days, 3 mice): None of the mice showed any lethal effect; increase of sAPPα over untreated control cells (Western blot) [2]: 2 fold; % TrkA ⬆ (TrkA [3]): 99%; lowest concentration with significant cytotoxicity (human primary neurons): 40 µM; lowest concentration with significant increase of sAPPα (sAPPα [4]): 50 nM; effect on P75NTR (P75NTR): did not affect; increase of TrkA in brain (TrkA [5]): 78%; lowest concentration with significant increase of sAPPα (sAPPα [6]): 50 nM
